Source: ChEMBL document CHEMBL2016523, “Discovery of an orally-bioavailable CC Chemokine Receptor 2 antagonist derived from an acyclic diaminoalcohol backbone” (Bioorg Med Chem Lett, 2012)
The source made the active and inactive calls. The rule behind the calls is not given here.

Molecular target: C-C chemokine receptor type 5 (Mus musculus, UniProt P51682)
Test: Binding affinity to mouse CCR5
Settings: not given

C-C chemokine receptor type 5, sequence (P51682 whole entry): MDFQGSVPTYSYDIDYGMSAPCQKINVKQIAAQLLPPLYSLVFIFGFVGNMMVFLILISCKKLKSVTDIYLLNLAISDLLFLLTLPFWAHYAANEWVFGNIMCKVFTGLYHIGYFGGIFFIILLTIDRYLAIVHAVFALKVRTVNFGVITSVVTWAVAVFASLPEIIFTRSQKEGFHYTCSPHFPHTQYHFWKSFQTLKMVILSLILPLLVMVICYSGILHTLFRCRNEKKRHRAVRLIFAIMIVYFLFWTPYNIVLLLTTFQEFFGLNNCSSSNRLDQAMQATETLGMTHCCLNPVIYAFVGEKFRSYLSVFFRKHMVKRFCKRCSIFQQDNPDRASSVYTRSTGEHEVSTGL

| Structure (SMILES) | IC50 |
| --- | --- |
| CCC[C@H](O)[C@H](CNCc1ccc(C)cc1C)NC(=O)CNC(=O)c1cc(C(F)(F)F)ccc1NC(=O)NCC | 86 nM |

Molecular target: C-C chemokine receptor type 2 (Mus musculus) (UniProt P51683)
Sequence (P51683 whole entry, looked up): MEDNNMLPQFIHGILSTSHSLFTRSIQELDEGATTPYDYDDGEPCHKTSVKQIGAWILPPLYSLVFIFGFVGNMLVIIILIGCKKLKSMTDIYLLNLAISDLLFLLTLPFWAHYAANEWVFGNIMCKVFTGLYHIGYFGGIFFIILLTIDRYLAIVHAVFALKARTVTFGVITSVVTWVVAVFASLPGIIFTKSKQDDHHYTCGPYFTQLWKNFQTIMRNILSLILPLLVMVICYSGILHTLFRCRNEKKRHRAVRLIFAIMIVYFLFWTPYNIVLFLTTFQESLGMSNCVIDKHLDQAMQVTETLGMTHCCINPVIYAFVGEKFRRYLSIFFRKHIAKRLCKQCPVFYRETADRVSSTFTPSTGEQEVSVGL
Test: Antagonist activity at CCR2 in mouse monocytes assessed as inhibition of MCP1-induced cAMP depression
Type: functional, cell-based
Settings: not given

| Structure (SMILES) | Activity |
| --- | --- |
| CCC[C@H](O)[C@H](CNCc1ccc(C)cc1C)NC(=O)CNC(=O)c1cc(C(F)(F)F)ccc1NC(=O)NCC | Active |

Tested on: not listed separately
Test: Clearance in mouse
Type: ADME, organism-based
Settings: in vivo

| Structure (SMILES) | clearance |
| --- | --- |
| CCC[C@H](O)[C@H](CNCc1ccc(C)cc1C)NC(=O)CNC(=O)c1cc(C(F)(F)F)ccc1NC(=O)NCC | 85 mL/min/kg |

Molecular target: T1, C-C chemokine receptor type 2 (Homo sapiens, UniProt P41597)
Test: Displacement of [125-I]MCP1 from CCR2 on human PBMC at 1 uM
Settings: not given
Target sequence in this assay (P41597 whole entry, looked up): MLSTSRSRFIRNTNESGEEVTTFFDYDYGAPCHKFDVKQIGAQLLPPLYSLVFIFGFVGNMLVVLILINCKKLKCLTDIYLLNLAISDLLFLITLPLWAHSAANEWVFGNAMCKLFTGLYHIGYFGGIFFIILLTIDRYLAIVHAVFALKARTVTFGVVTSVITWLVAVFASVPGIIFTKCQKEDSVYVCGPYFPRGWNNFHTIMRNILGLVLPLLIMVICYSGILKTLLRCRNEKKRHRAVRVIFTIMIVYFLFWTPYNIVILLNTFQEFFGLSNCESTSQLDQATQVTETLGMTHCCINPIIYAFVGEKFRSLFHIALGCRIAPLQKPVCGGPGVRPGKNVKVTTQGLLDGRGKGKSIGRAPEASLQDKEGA

| Structure (SMILES) | inhibition (INH) |
| --- | --- |
| CCC[C@H](O)[C@H](CNCc1ccc(C)cc1C)NC(=O)Cc1nc2ccc(C(F)(F)F)cc2[nH]1 | 6% |

Organism: Mus musculus
Test: Selectivity for mouse CCR2 over mouse CCR2
Settings: not given

| Structure (SMILES) | Selectivity ratio |
| --- | --- |
| CCC[C@H](O)[C@H](CNCc1ccc(C)cc1C)NC(=O)CNC(=O)c1cc(C(F)(F)F)ccc1NC(=O)NCC | > 1000 |

Tested on: not listed separately
Test: Oral bioavailability in mouse
Type: ADME, organism-based
Settings: in vivo

| Structure (SMILES) | bioavailability |
| --- | --- |
| CCC[C@H](O)[C@H](CNCc1ccc(C)cc1C)NC(=O)CNC(=O)c1cc(C(F)(F)F)ccc1NC(=O)NCC | 29% |

Molecular target: T1, C-C chemokine receptor type 2
Test: Displacement of [125-I]MCP1 from CCR2 on human PBMC
Settings: not given
Target sequence in this assay (P41597 whole entry): as the sequence (P41597 whole entry, looked up) above

| Structure (SMILES) | IC50 |
| --- | --- |
| CCC(O)(CC)[C@H](CNCc1ccc(C)cc1C)NC(=O)CNC(=O)c1cc(C(F)(F)F)ccc1N | 41 nM |
| Cc1ccc(CNC[C@H](NC(=O)CNC(=O)c2cccc(C(F)(F)F)c2)[C@H](O)CC(C)(C)C)c(C)c1 | 600 nM |
| Cc1ccc(CNC[C@H](NC(=O)CNC(=O)c2cccc(C(F)(F)F)c2)[C@@H](O)CC(C)(C)C)c(C)c1 | 19 nM |
| CCC[C@H](O)[C@H](CNCc1ccc(C)cc1C)NC(=O)CNC(=O)c1cc(C(F)(F)F)ccc1NC(=O)NCC | 3.6 nM |
| CCC[C@H](O)[C@H](CNCc1ccc(C)cc1C)NC(=O)CC(=O)Nc1cc(N)cc(C(F)(F)F)c1 | 3.8 nM |
| CCC[C@H](O)[C@H](CNCc1ccc(C)cc1C)NC(=O)CC(=O)Nc1cc(NC(=O)NCC)cc(C(F)(F)F)c1 | 40 nM |
| CCC[C@H](O)[C@H](CNCc1ccc(C)cc1C)N1CC[C@@H](NC(=O)c2cc(C(F)(F)F)ccc2NC(=O)OC(C)(C)C)C1=O | 28000 nM |
| Cc1ccc(CNC[C@H](NC(=O)CNC(=O)c2cc(C(F)(F)F)ccc2N)C(C)(C)O)c(C)c1 | 160 nM |
| CCC[C@H](O)[C@H](CNCc1ccc(C)cc1C)NC(=O)CNC(=O)c1cc(C(F)(F)F)ccc1NC(=O)NC | 6.7 nM |
| CCC[C@H](O)[C@H](CNCc1ccc(C)cc1C)NC(=O)CC(=O)Nc1cccc(C(F)(F)F)c1 | 28 nM |
| CCCC[C@H](O)[C@H](CNCc1ccc(C)cc1C)NC(=O)CNC(=O)c1cccc(C(F)(F)F)c1 | 5 nM |
| CCC[C@H](O)[C@H](CNCc1ccc(C)cc1C)NC(=O)CNC(=O)c1cc(N)cc(C(F)(F)F)c1 | 6.7 nM |
| CCC[C@H](O)[C@H](CNCc1ccc(C)cc1C)N1CC[C@H](NC(=O)c2cc(C(F)(F)F)ccc2N)C1=O | 900 nM |
| Cc1ccc(CNC[C@H](NC(=O)CNC(=O)c2cccc(C(F)(F)F)c2)[C@@H](O)C(C)C)c(C)c1 | 65 nM |
| CCC[C@@H](O)[C@H](CNCc1ccc(C)cc1C)NC(=O)CNC(=O)c1cc(C(F)(F)F)ccc1N | 7 nM |
| CCC[C@H](O)[C@H](CNCc1ccc(C)cc1C)N1CC[C@H](NC(=O)c2cc(C(F)(F)F)ccc2NC(=O)OC(C)(C)C)C1=O | 1040 nM |
| CC[C@H](O)[C@H](CNCc1ccc(C)cc1C)NC(=O)CNC(=O)c1cc(C(F)(F)F)ccc1N | 17 nM |
| Cc1ccc(CNC[C@H](NC(=O)CNC(=O)c2cccc(C(F)(F)F)c2)[C@H](O)c2ccccc2)c(C)c1 | > 1000 nM |
| Cc1ccc(CNC[C@H](NC(=O)CNC(=O)c2cccc(C(F)(F)F)c2)[C@@H](O)c2ccccc2)c(C)c1 | 100 nM |
| CCC[C@H](O)[C@H](CNCc1ccc(C)cc1C)NC(=O)CNC(=O)c1cc(C(F)(F)F)ccc1NC(C)(C)C | 7.4 nM |
| CCC[C@H](O)[C@H](CNCc1ccc(C)cc1C)NC(=O)CC(=O)Nc1cc(OC)cc(C(F)(F)F)c1 | 24 nM |
| CCC[C@H](O)[C@H](CNCc1ccc(C)cc1C)NC(=O)CNC(=O)c1cc(C(F)(F)F)ccc1N | 3.4 nM |
| CCC[C@H](O)[C@H](CNCc1ccc(C)cc1C)NC(=O)CC(=O)Nc1cc(NC)cc(C(F)(F)F)c1 | 7.1 nM |
| CCC[C@H](O)[C@H](CN(Cc1ccc(C)cc1C)C(C)C)NC(=O)CNC(=O)c1cc(C(F)(F)F)ccc1NC(=O)NC(C)C | 1700 nM |
| Cc1ccc(CNC[C@H](NC(=O)CNC(=O)c2cccc(C(F)(F)F)c2)[C@H](O)C(C)C)c(C)c1 | 100 nM |
| CCC[C@H](O)[C@H](CNCc1ccc(C)cc1C)N1CC[C@H](NC(=O)c2cc(N)cc(C(F)(F)F)c2)C1=O | 1230 nM |

| Structure (SMILES) | IC50 |
| --- | --- |
| CCC[C@H](O)[C@H](CNCc1ccc(C)cc1C)NC(=O)CNC(=O)c1cc(C(F)(F)F)ccc1NC(=O)N1CCOCC1 | 3.8 nM |
| CCCNc1cc(NC(=O)CC(=O)N[C@@H](CNCc2ccc(C)cc2C)[C@@H](O)CCC)cc(C(F)(F)F)c1 | 20 nM |
| CCC[C@H](O)[C@H](CNCc1ccc(C)cc1C)NC(=O)CC(=O)Nc1cc(C(F)(F)F)ccc1NC(=O)OC(C)(C)C | 240 nM |
| CCC[C@H](O)[C@H](CNCc1ccc(C)cc1C)NC(=O)CC(=O)Nc1cc(C(F)(F)F)ccc1OC | 217 nM |
| CCCC(O)(CCC)[C@H](CNCc1ccc(C)cc1C)NC(=O)CNC(=O)c1cc(C(F)(F)F)ccc1N | 27 nM |
| CCC[C@H](O)[C@H](CNCc1ccc(C)cc1C)NC(=O)CC(=O)Nc1cc(C(F)(F)F)cc(C(F)(F)F)c1 | 690 nM |
| CCC[C@H](O)[C@H](CNCc1ccc(C)cc1C)NC(=O)CC(=O)Nc1cc(Br)cc(C(F)(F)F)c1 | 710 nM |
| CCC[C@H](O)[C@H](CNCc1ccc(C)cc1C)NC(=O)CC(=O)Nc1cc(NC(=O)OC(C)(C)C)cc(C(F)(F)F)c1 | 340 nM |
| CCC[C@H](O)[C@H](CNCc1ccc(C)cc1C)NC(=O)CNC(=O)c1cc(C(F)(F)F)ccc1NC(=O)N1CCNCC1 | 2.5 nM |
| CCC[C@H](O)[C@H](CNCc1ccc(C)cc1C)NC(=O)CNC(=O)c1cc(C(F)(F)F)ccc1NC(=O)N1CCC1 | 2.1 nM |
| CCC[C@H](O)[C@H](CNCc1ccc(C)cc1C)NC(=O)CC(=O)Nc1cc(C(F)(F)F)ccc1N | 43 nM |
| CCC[C@H](OC)[C@H](CNCc1ccc(C)cc1C)NC(=O)CNC(=O)c1cc(C(F)(F)F)ccc1N | 11 nM |
| CC[C@@H](O)[C@H](CNCc1ccc(C)cc1C)NC(=O)CNC(=O)c1cccc(C(F)(F)F)c1 | 390 nM |
| CC[C@H](O)[C@H](CNCc1ccc(C)cc1C)NC(=O)CNC(=O)c1cccc(C(F)(F)F)c1 | 64 nM |
| CCC[C@H](O)[C@H](CNCc1ccc(C)cc1C)NC(=O)CNC(=O)c1cc(C(F)(F)F)ccc1NC(=O)N1CCCC1 | 5.8 nM |
| CCC[C@H](O)[C@H](CN(C)Cc1ccc(C)cc1C)NC(=O)CNC(=O)c1cc(C(F)(F)F)ccc1NC(=O)NC(C)C | 440 nM |
| CCC[C@H](O)[C@H](CNCc1ccc(C)cc1C)NC(=O)CC(=O)Nc1cc(C(=O)NCC)cc(C(F)(F)F)c1 | 158 nM |
| CCC[C@H](O)[C@H](CNCc1ccc(C)cc1C)NC(=O)Cc1nc2c(C(F)(F)F)cccc2[nH]1 | 49 nM |
| CCCC[C@@H](O)[C@H](CNCc1ccc(C)cc1C)NC(=O)CNC(=O)c1cccc(C(F)(F)F)c1 | 180 nM |
| CCC[C@H](O)[C@H](CNCc1ccc(C)cc1C)NC(=O)CNC(=O)c1cc(C(F)(F)F)ccc1NC(=O)OC(C)(C)C | 4 nM |
| CCC[C@H](O)[C@H](CNCc1ccc(C)cc1C)NC(=O)CNc1n[nH]c2ccc(C(F)(F)F)cc12 | 10 nM |
| CCC[C@H](O)[C@H](CNCc1ccc(C)cc1C)NC(=O)CNC(=O)c1cc(C(F)(F)F)ccc1NCc1ccccc1 | 9.3 nM |
| CCC[C@H](O)[C@H](CNCc1ccc(C)cc1C)NC(=O)CNC(=O)c1cc(C(F)(F)F)ccc1NC(C)C | 5.3 nM |
| Cc1ccc(CNC[C@H](NC(=O)CNC(=O)c2cc(C(F)(F)F)ccc2N)C2(O)CCCC2)c(C)c1 | 87 nM |
| CCC[C@H](O)[C@H](CNCc1ccc(C)cc1C)NC(=O)CC(=O)Nc1cc(NCC)cc(C(F)(F)F)c1 | 4.5 nM |

Organism: Mus musculus
Test: Selectivity for mouse CCR2 over mouse CCR1
Settings: not given

| Structure (SMILES) | Selectivity ratio |
| --- | --- |
| CCC[C@H](O)[C@H](CNCc1ccc(C)cc1C)NC(=O)CNC(=O)c1cc(C(F)(F)F)ccc1NC(=O)NCC | > 1000 |

Molecular target: C-C chemokine receptor type 2 (Mus musculus) (UniProt P51683)
Test: Binding affinity to mouse CCR2
Settings: not given

| Structure (SMILES) | inhibition |
| --- | --- |
| CCC[C@H](O)[C@H](CNCc1ccc(C)cc1C)NC(=O)CNC(=O)c1cc(C(F)(F)F)ccc1NC(=O)NCC | Active |
| CCC[C@@H](O)[C@H](CNCc1ccc(C)cc1C)NC(=O)CNC(=O)c1cc(C(F)(F)F)ccc1N | inactive |
| Cc1ccc(CNC[C@H](NC(=O)CNC(=O)c2cccc(C(F)(F)F)c2)[C@H](O)CC(C)C)c(C)c1 | inactive |
| CCC[C@H](O)[C@H](CNCc1ccc(C)cc1C)NC(=O)CNC(=O)c1cc(C(F)(F)F)ccc1N | Active |
| CCC[C@H](O)[C@H](CNCc1ccc(C)cc1C)NC(=O)CNC(=O)c1cccc(C(F)(F)F)c1 | Active |
| CCC[C@H](O)[C@H](CNCc1ccc(C)cc1C)NC(=O)CNC(=O)c1cc(C(F)(F)F)ccc1NC(=O)OC(C)(C)C | Active |
| Cc1ccc(CNC[C@H](NC(=O)CNC(=O)c2cccc(C(F)(F)F)c2)[C@@H](O)CC(C)C)c(C)c1 | inactive |

Molecular target: C-C chemokine receptor type 2 (Mus musculus) (UniProt P51683)
Test: Antagonist activity at CCR2 in mouse monocytes assessed as inhibition of MCP1-induced calcium flux
Type: functional, cell-based
Settings: not given

| Structure (SMILES) | Activity |
| --- | --- |
| CCC[C@H](O)[C@H](CNCc1ccc(C)cc1C)NC(=O)CNC(=O)c1cc(C(F)(F)F)ccc1NC(=O)NCC | Active |
